This is an account of results in PubChem BioAssay (NCI).

Among the test systems are HL-60(TB) leukemia; K-562 leukemia; KM12 colon; MOLT-4 leukemia; OVCAR-4 ovarian; OVCAR-8 ovarian; SK-MEL-2 melanoma; SK-OV-3 ovarian; SR leukemia; U251 CNS.
Experiment in all cases: growth of human tumour cells (NCI), 48 h

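Five concentrations, 48 hours, 96-well plates. TGI marks complete inhibition of growth.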 Bounds are passed on as bounds.

Consider `COC(=O)[C@@H]1C[C@]2(CC=C(C)C)c3ccccc3N(S(=O)(=O)c3ccccc3)[C@@H]2N1C(=O)OC`, for which the TGI in the assay on HL-60(TB) leukemia was 33.5 µM; with K-562 leukemia, greater than 100 µM; in the assay with KM12 colon it was greater than 100 µM; in the assay with MOLT-4 leukemia, greater than 100 µM; in the assay on OVCAR-4 ovarian it was greater than 100 µM; in the assay on OVCAR-8 ovarian it was 86.5 µM. Also, the TGI is 34.3 µM in the assay with SK-MEL-2 melanoma, greater than 100 µM with SK-OV-3 ovarian, 99.3 µM in the assay on SR leukemia and 41.8 µM in the assay with U251 CNS.

Regarding `OCSc1nn(CO)c(=S)s1`, the TGI in the assay on HL-60(TB) leukemia was 54 µM; with K-562 leukemia, 43.4 µM; in the assay with KM12 colon it was 40.4 µM; in the assay with MOLT-4 leukemia, 51.6 µM; with OVCAR-4 ovarian it was 47 µM; in the assay with OVCAR-8 ovarian, 32.8 µM. Moreover, the TGI in the assay on SK-MEL-2 melanoma was 45.2 µM; with SK-OV-3 ovarian, 92.7 µM; in the assay on SR leukemia, 11.9 µM; in the assay on U251 CNS, 56.8 µM.

For the molecule `COc1cc2c(cc1O)C(C)Cc1cc3c(cc1N(C)CC2)OCO3` (stereo not given), the TGI was greater than 58.8 µM with HL-60(TB) leukemia; greater than 27.9 µM with K-562 leukemia; 17.8 µM with KM12 colon; 36.5 µM in the assay on MOLT-4 leukemia; greater than 65.2 µM in the assay with OVCAR-4 ovarian; 37.5 µM in the assay on OVCAR-8 ovarian. Further, the TGI was 38.1 µM in the assay with SK-MEL-2 melanoma, 22.8 µM in the assay with SK-OV-3 ovarian, greater than 100 µM in the assay on SR leukemia and 14.8 µM in the assay with U251 CNS.
